Peptide text beside a SMILES is read from it. * marks the point of attachment. X2 = CC[C@@H](C)[C@H](CN[C@@H](Cc1ccccc1)C(=O)O)N*
The compounds below were run against T1, Neurotensin receptor type 1 (Rattus norvegicus, UniProt P20789) (assay: IC50 was measured as binding to rat cortex membranes using [3H]- NT (neurotensin) as tracer).
T1 sequence (P20789 whole entry): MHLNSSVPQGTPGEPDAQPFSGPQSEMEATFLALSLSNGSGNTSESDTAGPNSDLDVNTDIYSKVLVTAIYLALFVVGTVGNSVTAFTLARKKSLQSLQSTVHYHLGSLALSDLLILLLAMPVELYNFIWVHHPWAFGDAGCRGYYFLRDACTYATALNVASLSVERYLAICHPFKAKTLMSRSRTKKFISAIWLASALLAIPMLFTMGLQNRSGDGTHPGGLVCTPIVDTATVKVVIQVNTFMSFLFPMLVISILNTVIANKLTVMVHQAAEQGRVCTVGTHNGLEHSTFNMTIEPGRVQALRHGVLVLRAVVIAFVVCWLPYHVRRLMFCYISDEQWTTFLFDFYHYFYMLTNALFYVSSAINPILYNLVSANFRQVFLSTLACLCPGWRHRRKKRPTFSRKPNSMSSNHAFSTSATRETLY

Row | SMILES | IC50 [nM]
1 | CC[C@H](C)[C@H](NC(C#N)[C@@H](Cc1ccc(O)cc1)NC(=O)[C@@H]1CCCN1C(=O)[C@H](CCCN=C(N)N)NC(=O)[C@@H](N)CCCN=C(N)N)C(=O)N[C@@H](CC(C)C)C(=O)O (some centres undefined) | 180
2 | CC[C@H](C)[C@H](NC(C#N)[C@H](Cc1ccc(O)cc1)NC(=O)C1CCCN1C(=O)[C@H](CCCN=C(N)N)NC(=O)[C@@H](N)CCCN=C(N)N)C(=O)N[C@@H](CC(C)C)C(=O)O (some centres undefined) | 10000

Each compound was assayed against T1, Neurotensin receptor type 1 (assay: IC50 was measured as binding to rat cortex membranes using [3H]- NT(neurotensin) as tracer).

Row | SMILES | IC50 [nM]
3 | CC(C)C[C@H](NC(=O)C(CC(=O)[C@H](Cc1ccc(O)cc1)NC(=O)[C@@H]1CCCN1C(=O)[C@H](CCCNC(=N)N)NC(=O)[C@@H](N)CCCNC(=N)N)Cc1ccccc1)C(=O)O (single isomer, unassigned) | 15
4 | CC[C@H](C)[C@H](NC(=O)[C@H](Cc1ccc(O)cc1)NC(=O)[C@@H]1CCCN1C(=O)[C@H](CCCNC(=N)N)NC(=O)[C@@H](N)CCCNC(=N)N)C(=O)N[C@@H](Cc1ccccc1)C(=O)O | 5
5 | CC[C@@H](C)[C@H](CN[C@@H](Cc1ccccc1)C(=O)O)NC(=O)[C@H](Cc1ccc(O)cc1)NC(=O)[C@@H]1CCCN1C(=O)[C@H](CCCNC(=N)N)NC(=O)[C@@H](N)CCCNC(=N)N (H-RRPY-X2) | 8000
6 | CC[C@H](C)[C@H](NC(=O)[C@H](Cc1ccc(O)cc1)NC(=O)[C@@H]1CCCN1C(=O)[C@H](CCCN=C(N)N)NC(=O)[C@@H](N)CCCN=C(N)N)C(=O)C[C@H](Cc1ccccc1)C(=O)O (stereo in doubt; 13a) [listing 1 of 2 here] | 120
7 | CC[C@H](C)[C@H](NC[C@H](Cc1ccc(O)cc1)NC(=O)[C@@H]1CCCN1C(=O)[C@H](CCCN=C(N)N)NC(=O)[C@@H](N)CCCN=C(N)N)C(=O)N[C@@H](CC(C)C)C(=O)O | 6310
8 | CC[C@H](C)[C@H](NC(=O)[C@H](Cc1ccc(O)cc1)NC(=O)[C@@H]1CCCN1C(=O)[C@H](CCCN=C(N)N)NC(=O)[C@@H](N)CCCN=C(N)N)C(=O)C[C@H](Cc1ccccc1)C(=O)O (stereo in doubt; 13b) [listing 1 of 2 here] | 1200
9 | CC[C@H](C)[C@H](NC(=O)[C@H](Cc1ccc(O)cc1)NC(=O)[C@@H]1CCCN1C(=O)[C@H](CCCN=C(N)N)NC(=O)[C@@H](N)CCCN=C(N)N)C(=O)C[C@H](Cc1ccccc1)C(=O)O (stereo in doubt; 13c) [listing 1 of 2 here] | 1500
10 | CC(C)C[C@H](NC(=O)[C@H](Cc1ccccc1)NC(=O)[C@H](Cc1ccc(O)cc1)NC(=O)[C@@H]1CCCN1C(=O)[C@H](CCCN=C(N)N)NC(=O)[C@@H](N)CCCN=C(N)N)C(=O)O | 8
11 | CC(C)C[C@H](NC(=O)[C@H](CC(=O)[C@H](Cc1ccc(O)cc1)NC(=O)[C@@H]1CCCN1C(=O)[C@H](CCCNC(=N)N)NC(=O)[C@@H](N)CCCNC(=N)N)Cc1ccccc1)C(=O)O | 1200
12 | CC[C@H](C)[C@H](NC(=O)[C@H](Cc1ccc(O)cc1)NC(=O)[C@@H]1CCCN1C(=O)[C@H](CCCN=C(N)N)NC(=O)[C@@H](N)CCCN=C(N)N)C(=O)C[C@H](Cc1ccccc1)C(=O)O (mixture of isomers) [listing 1 of 2 here] | 900

These compounds were tested against Neurotensin receptor type 1 (Rattus norvegicus) (UniProt P20789) (assay: Relative potency at neurotensin receptor compared to neurotensin (NT8-13)).
Neurotensin receptor type 1 (Rattus norvegicus), sequence (P20789 whole entry): as above

Row | SMILES | Relative potency
13 | CC[C@@H](C)[C@@H](NC[C@H](Cc1ccc(O)cc1)NC(=O)[C@@H]1CCCN1C(=O)[C@H](CCCN=C(N)N)NC(=O)[C@@H](N)CCCN=C(N)N)C(=O)N[C@@H](CC(C)C)C(=O)O | 0.1
14 | CC(C)C[C@H](NC(=O)C(CC(=O)[C@H](Cc1ccc(O)cc1)NC(=O)[C@@H]1CCCN1C(=O)[C@H](CCCNC(=N)N)NC(=O)[C@@H](N)CCCNC(=N)N)Cc1ccccc1)C(=O)O (single isomer, unassigned) | 66.6
15 | CC[C@H](C)[C@H](NC(C#N)[C@@H](Cc1ccc(O)cc1)NC(=O)[C@@H]1CCCN1C(=O)[C@H](CCCN=C(N)N)NC(=O)[C@@H](N)CCCN=C(N)N)C(=O)N[C@@H](CC(C)C)C(=O)O (some centres undefined) | 5.5
16 | CC[C@H](C)[C@H](NC(=O)[C@H](Cc1ccc(O)cc1)NC(=O)[C@@H]1CCCN1C(=O)[C@H](CCCN=C(N)N)NC(=O)[C@@H](N)CCCN=C(N)N)C(=O)C[C@H](Cc1ccccc1)C(=O)O (stereo in doubt; 13c) [listing 2 of 2 here] | 0.6
17 | CC[C@@H](C)[C@H](CN[C@@H](Cc1ccccc1)C(=O)O)NC(=O)[C@H](Cc1ccc(O)cc1)NC(=O)[C@@H]1CCCN1C(=O)[C@H](CCCN=C(N)N)NC(=O)[C@@H](N)CCCN=C(N)N (H-RRPY-X2) | 0.1
18 | CC(C)C[C@H](NC(=O)[C@@H](Cc1ccccc1)NC(=O)[C@H](Cc1ccc(O)cc1)NC(=O)[C@@H]1CCCN1C(=O)[C@H](CCCN=C(N)N)NC(=O)[C@@H](N)CCCN=C(N)N)C(=O)O | 105
19 | CC[C@H](C)[C@H](NC(=O)[C@H](Cc1ccc(O)cc1)NC(=O)[C@@H]1CCCN1C(=O)[C@H](CCCN=C(N)N)NC(=O)[C@@H](N)CCCN=C(N)N)C(=O)C[C@H](Cc1ccccc1)C(=O)O (stereo in doubt; 13b) [listing 2 of 2 here] | 0.8
20 | CC[C@H](C)[C@H](NC(=O)[C@H](Cc1ccc(O)cc1)NC(=O)[C@@H]1CCCN1C(=O)[C@H](CCCN=C(N)N)NC(=O)[C@@H](N)CCCN=C(N)N)C(=O)C[C@H](Cc1ccccc1)C(=O)O (mixture of isomers) [listing 2 of 2 here] | 1.1
21 | CC(C)C[C@H](NC(=O)[C@H](CC(=O)[C@H](Cc1ccc(O)cc1)NC(=O)[C@@H]1CCCN1C(=O)[C@H](CCCNC(=N)N)NC(=O)[C@@H](N)CCCNC(=N)N)Cc1ccccc1)C(=O)O | 0.8
22 | CC[C@H](C)[C@H](NC(=O)[C@H](Cc1ccc(O)cc1)NC(=O)[C@@H]1CCCN1C(=O)[C@H](CCCN=C(N)N)NC(=O)[C@@H](N)CCCN=C(N)N)C(=O)C[C@H](Cc1ccccc1)C(=O)O (stereo in doubt; 13a) [listing 2 of 2 here] | 8.3
23 | CC[C@@H](C)[C@@H](NC(=O)[C@H](Cc1ccc(O)cc1)NC(=O)[C@@H]1CCCN1C(=O)[C@H](CCCN=C(N)N)NC(=O)[C@@H](N)CCCN=C(N)N)C(=O)N[C@@H](Cc1ccccc1)C(=O)O | 200
24 | CC[C@H](C)[C@H](NC(C#N)[C@H](Cc1ccc(O)cc1)NC(=O)C1CCCN1C(=O)[C@H](CCCN=C(N)N)NC(=O)[C@@H](N)CCCN=C(N)N)C(=O)N[C@@H](CC(C)C)C(=O)O (some centres undefined) | 0.1

— ChEMBL document CHEMBL1128259, “Ketomethylene and (cyanomethylene)amino pseudopeptide analogues of the C-terminal hexapeptide of neurotensin” (J Med Chem, 1995)
